Measured values taken from article PMC8224453, “A New PqsR Inverse Agonist Potentiates Tobramycin Efficacy to Eradicate Pseudomonas aeruginosa Biofilms” (Advanced Science, 2021).

Columns and labels:
[1] = Metabolic stability, monkey liver S9; format: in vitro ADME; conditions: pooled liver S9 fraction, Table S4, read-out: t1/2 monkey liver S9
Method: For the evaluation of combined phase I and phase II metabolic stability, the compound (1 μM) was incubated with 1 mg/mL pooled liver S9 fraction from the respective species (Xenotech), […]
2 mM NADPH, 1 mM UDPGA, 10 mM MgCl2, 5 mM GSH and 0.1 mM PAPS at 37 °C for […]
0, 5, 15, 30 or 60 min. The metabolic stability of Testosterone (1 μM) and verapamil (1 μM) […]
were determined in parallel to confirm the enzymatic activity of the S9 fraction. The […]
incubation was stopped by precipitation of S9 enzymes with 2 volumes of cold acetonitrile […]
containing internal standard (750 nM Diphenhydramine). Samples were stored on ice for 10 […]
min and precipitated protein was removed by centrifugation (10 min, 4 °C, 17,000 g).
Concentration of the remaining test compound at the different time points was analyzed by […]
LC-MS/MS (TSQ Quantum Access MAX, Thermo Fisher, Dreieich, Germany) and used to […]
determine half-life (t1/2). Stability of compound 4 in further S9 fractions are summarized in […]
Table S4. Metabolic stability studies in various S9 fractions. […]

[2] = Mouse MTD, acute single dose toxicity i.v.; format: in vivo; conditions: mice
Method: Pyruvate. Passages between 35 and 55 were used, medium was changed every 2-3 days. For experiments, cells were harvested using Trypsin/EDTA and seeded on Transwell® inserts 3460 at a density of 1∙105 cells. Cells were grown at air-liquid interface beginning day 3 and used for Transport studies on day 11-13. TEER values exceeded 300 Ω∙cm2 before beginning Transport studies. For experiments, Krebs-Ringer solution with 1% BSA was used and cells were accommodated to the buffer for at least 1h with no decrease in TEER. 200 µL samples were taken in regular intervals from the apical side (time intervals 0, 20, 40, 60, 90, 120, 180, 240 minutes) and replenished with fresh buffer. TEER was monitored during the experiment and epithelial barriers were considered compromised if the TEER fell below 300 during 4 h of experiment duration. […] 50 µL of sample was mixed with 150 µL of ice-cold acetonitrile containing internal standard diphenhydramine (1 µM) and the concentration of compound was analyzed with LC-MS/MS. […]
The in vivo tolerability study was performed on ten-week old female C57BL/6N mice. […] Mice behavior and body weight were monitored over 24 h period. At 24 h post-injection, the mice were euthanized, lungs were collected, and the blood leukocytes as well as the absolute leukocytes (including segented, lymphocytes, monocytes and eosinophiles) were counted to access the tolerability. […]

FC(F)(F)c1cc(NCc2cn(-c3ccc(Oc4ccccc4)cc3)nn2)ccn1 [Compound 4]
half-life at 1 μM [1]: 22.8 ± 6.7 min
test dosing up to which no test item related clinical symptoms were observed ([2]; i.v. single dose, after 24 h): ≥ 60 mg/kg
MTD at 24 h ([2]; mouse, in vivo, iv, i.v., read-out: dose up to which well tolerated (maximum tolerated dose study)): ≥ 60 mg/kg
